Results: patent US4617290A, “Synergistine derivatives, their preparation and pharmaceutical compositions containing them” (Rhone-Poulenc Sante, priority 1983, dated 1986)

Format: physicochemical
Procedure: The new compounds of the invention have the considerable advantage of being soluble or capable of being solubilized in water, either in the form of parent substances or in the form of salts, at therapeutically useful levels, while at the same time retaining the general spectrum of antibacterial activity of synergistines. They are especially active in vitro against Staphylococcus aureus Smith at concentrations of between 8 and 125 μg/ml. A 10% aqueous solution of 5γ-deoxy-5γ-(3-dimethylaminopropyl)aminopristinamycin IA (product A) in the form of the hydrochloride is obtained with: […]

5γ-[N-(carboxymethyl)-methylamino]-5γ-deoxypristinamycin IA [product K]
concentration of aqueous solution obtained: 2%
